Laboratory results as given in a compilation of properties of binary mixtures (doi:10.1016/j.molliq.2022.120536).

Experiment: xn = mol fraction of the nth substance listed
Settings: 100 kPa

In the case of `CC[N+](CC)(CC)CC.O=S(=O)([O-])C(F)(F)F` + CC#N, the electrical conductivity (293.15 K, x1 = 0.08) is reported as 4.63 S/m, the electrical conductivity (293.15 K, x1 = 0.0997) is reported as 4.72 S/m and the electrical conductivity (293.15 K, x1 = 0.1199) is reported as 4.54 S/m. For the same compound, the electrical conductivity (293.15 K, x1 = 0.1498) was 4.22 S/m, the electrical conductivity (293.15 K, x1 = 0.2) was 3.51 S/m and the electrical conductivity (293.15 K, x1 = 0.25) was 2.89 S/m. The electrical conductivity (293.15 K, x1 = 0.2995) was 2.58 S/m, the electrical conductivity (298.15 K, x1 = 0.02) was 2.66 S/m and the electrical conductivity (298.15 K, x1 = 0.05) was 4.19 S/m. It also gave an electrical conductivity (298.15 K, x1 = 0.08) of 4.71 S/m, an electrical conductivity (298.15 K, x1 = 0.1199) of 4.7 S/m and an electrical conductivity (298.15 K, x1 = 0.1498) of 4.38 S/m. It also gave an electrical conductivity (298.15 K, x1 = 0.2) of 3.62 S/m, an electrical conductivity (298.15 K, x1 = 0.25) of 3.14 S/m and an electrical conductivity (298.15 K, x1 = 0.2995) of 2.82 S/m. It also gave an electrical conductivity (303.15 K, x1 = 0.02) of 2.77 S/m, an electrical conductivity (303.15 K, x1 = 0.05) of 4.39 S/m and an electrical conductivity (303.15 K, x1 = 0.08) of 4.84 S/m. It also gave an electrical conductivity (303.15 K, x1 = 0.0997) of 5 S/m, an electrical conductivity (303.15 K, x1 = 0.1199) of 4.96 S/m and an electrical conductivity (303.15 K, x1 = 0.1498) of 4.48 S/m. For the same compound, the electrical conductivity (303.15 K, x1 = 0.2) was 3.78 S/m, the electrical conductivity (303.15 K, x1 = 0.25) was 3.39 S/m and the electrical conductivity (303.15 K, x1 = 0.2995) was 3.08 S/m. It also gave an electrical conductivity (308.15 K, x1 = 0.02) of 2.87 S/m, an electrical conductivity (308.15 K, x1 = 0.05) of 4.57 S/m and an electrical conductivity (308.15 K, x1 = 0.08) of 5.08 S/m. It also gave an electrical conductivity (308.15 K, x1 = 0.0997) of 5.24 S/m, an electrical conductivity (308.15 K, x1 = 0.1199) of 5.22 S/m and an electrical conductivity (308.15 K, x1 = 0.2) of 4.06 S/m. It also gave an electrical conductivity (308.15 K, x1 = 0.25) of 3.65 S/m, an electrical conductivity (308.15 K, x1 = 0.2995) of 3.35 S/m and an electrical conductivity (313.15 K, x1 = 0.02) of 2.97 S/m. It also gave an electrical conductivity (313.15 K, x1 = 0.05) of 4.76 S/m, an electrical conductivity (313.15 K, x1 = 0.08) of 5.31 S/m and an electrical conductivity (313.15 K, x1 = 0.0997) of 5.49 S/m. The electrical conductivity (313.15 K, x1 = 0.1199) was 5.48 S/m, the electrical conductivity (313.15 K, x1 = 0.1498) was 5.04 S/m and the electrical conductivity (313.15 K, x1 = 0.2) was 4.34 S/m. The electrical conductivity (313.15 K, x1 = 0.25) was 3.91 S/m, the electrical conductivity (313.15 K, x1 = 0.2995) was 3.62 S/m and the electrical conductivity (318.15 K, x1 = 0.02) was 3.08 S/m. It also gave an electrical conductivity (318.15 K, x1 = 0.08) of 5.54 S/m, an electrical conductivity (318.15 K, x1 = 0.0997) of 5.73 S/m and an electrical conductivity (318.15 K, x1 = 0.1199) of 5.74 S/m. The electrical conductivity (318.15 K, x1 = 0.1498) was 5.32 S/m, the electrical conductivity (318.15 K, x1 = 0.2) was 4.61 S/m and the electrical conductivity (318.15 K, x1 = 0.25) was 4.17 S/m. It also gave an electrical conductivity (323.15 K, x1 = 0.02) of 3.18 S/m, an electrical conductivity (323.15 K, x1 = 0.05) of 5.11 S/m and an electrical conductivity (323.15 K, x1 = 0.08) of 5.77 S/m. It also gave an electrical conductivity (323.15 K, x1 = 0.0997) of 5.98 S/m, an electrical conductivity (323.15 K, x1 = 0.1199) of 5.99 S/m and an electrical conductivity (323.15 K, x1 = 0.1498) of 5.6 S/m. The electrical conductivity (323.15 K, x1 = 0.2) was 4.89 S/m, the electrical conductivity (323.15 K, x1 = 0.25) was 4.44 S/m and the electrical conductivity (328.15 K, x1 = 0.02) was 3.28 S/m. The electrical conductivity (328.15 K, x1 = 0.05) was 5.29 S/m, the electrical conductivity (328.15 K, x1 = 0.08) was 6 S/m and the electrical conductivity (328.15 K, x1 = 0.0997) was 6.22 S/m. For the same compound, the electrical conductivity (328.15 K, x1 = 0.1199) was 6.25 S/m, the electrical conductivity (328.15 K, x1 = 0.1498) was 5.88 S/m and the electrical conductivity (328.15 K, x1 = 0.2) was 5.17 S/m. For the same compound, the electrical conductivity (328.15 K, x1 = 0.25) was 4.7 S/m, the electrical conductivity (328.15 K, x1 = 0.2995) was 4.44 S/m and the electrical conductivity (333.15 K, x1 = 0.02) was 3.38 S/m. It also gave an electrical conductivity (333.15 K, x1 = 0.05) of 5.46 S/m, an electrical conductivity (333.15 K, x1 = 0.08) of 6.23 S/m and an electrical conductivity (333.15 K, x1 = 0.0997) of 6.45 S/m. For the same compound, the electrical conductivity (333.15 K, x1 = 0.1199) was 6.5 S/m, the electrical conductivity (333.15 K, x1 = 0.1498) was 6.15 S/m and the electrical conductivity (338.15 K, x1 = 0.02) was 3.47 S/m. The electrical conductivity (338.15 K, x1 = 0.05) was 5.64 S/m, the electrical conductivity (338.15 K, x1 = 0.08) was 6.45 S/m and the electrical conductivity (338.15 K, x1 = 0.0997) was 6.69 S/m. For the same compound, the electrical conductivity (338.15 K, x1 = 0.1199) was 6.76 S/m, the electrical conductivity (338.15 K, x1 = 0.1498) was 6.42 S/m and the electrical conductivity (338.15 K, x1 = 0.2) was 5.72 S/m. The electrical conductivity (338.15 K, x1 = 0.25) was 5.22 S/m, the electrical conductivity (338.15 K, x1 = 0.2995) was 5.01 S/m and the electrical conductivity (343.15 K, x1 = 0.02) was 3.58 S/m. For the same compound, the electrical conductivity (343.15 K, x1 = 0.05) was 5.81 S/m, the electrical conductivity (343.15 K, x1 = 0.08) was 6.67 S/m and the electrical conductivity (343.15 K, x1 = 0.0997) was 6.92 S/m. The electrical conductivity (343.15 K, x1 = 0.1199) was 7.02 S/m, the electrical conductivity (343.15 K, x1 = 0.1498) was 6.7 S/m and the electrical conductivity (343.15 K, x1 = 0.2) was 6 S/m. The electrical conductivity (343.15 K, x1 = 0.25) was 5.5 S/m, the electrical conductivity (343.15 K, x1 = 0.2995) was 5.28 S/m and the electrical conductivity (348.15 K, x1 = 0.05) was 5.97 S/m. For the same compound, the electrical conductivity (348.15 K, x1 = 0.0997) was 7.16 S/m, the electrical conductivity (348.15 K, x1 = 0.1199) was 7.27 S/m and the electrical conductivity (348.15 K, x1 = 0.2) was 6.26 S/m. The electrical conductivity (348.15 K, x1 = 0.25) was 5.77 S/m and the electrical conductivity (348.15 K, x1 = 0.2995) was 5.55 S/m.
